Measurements from patent publication US20240368667A1, “RAPID, LABEL-FREE ANTIBIOTIC SUSCEPTIBILITY OF BACTERIA DIRECTLY FROM POSITIVE BLOOD OR BODILY FLUID/CULTURE” (priority 2021, published 2024).
Converted amounts (≈) assume the structure as drawn. Where two headings read alike, the source gives them in different places.

Key:
E. coli [1] = experiment: Direct flow cytometric AST (high-throughput flow cytometry, HTFC) of sucrose-recovered bacteria; format: cell-based, Escherichia coli; parameters: key to susceptibility classification, HTFC: (S) sensitive; (I) intermediate; (R) resistant; conditions: sucrose-recovered, antibiotic 4 hours (37° C.); for MIC: Escherichia coli, 4 h, read-out: Minimum inhibitory concentration, HTFC
Method: AST workflow using bacteria recovered directly from positive blood culture. A 1-mL aliquot of bacteria recovered using separation method 2 was diluted 10-fold in CAMHB, the OD600 adjusted to ˜0.01, and a 50 μL aliquot distributed into each well of a 96-well plate containing CAMHB with and without ceftazidime, tobramycin, and either meropenem (E. coli and P. aeruginosa) or oxacillin (S. aureus). Following Clinical and Laboratory Standards Institute (CLSI) guidelines^33, 2% sodium chloride (NaCl) was present in wells containing oxacillin to assist in the detection of methicillin-resistant S. aureus (MRSA). […] To account for observed differences in doubling and lag times, E. coli and P. aeruginosa were incubated for 4 hours at 37° C., while S. aureus was incubated for 9 hours at 35° C. After incubation, antibiotic plates were removed from the incubator and directly stored on ice (i.e. no post-processing) until high-throughput flow cytometry (BD LSRFortessa with HTS-system, BD, Franklin Lakes, NJ). No-antibiotic controls and antibiotic-treated samples were handled identically.
MIC Determination by flow cytometry. Because antibiotic effects are observed in both the position of scatter signatures (morphology changes) and count rates (growth inhibition), a modified count rate, accounting for scatter position, was used to evaluate susceptibility. Briefly, no-antibiotic control populations (triplicate) were pooled, binned, and a convex hull boundary set at 1-standard deviation above the background (not including bins with zero counts) was drawn. […] The overlap ratio, measuring changes in morphology, was then computed by dividing the number of sample events within the no-antibiotic control boundary by the total number of events within the sample. As an increase in count rate attributed to viable bacteria in antibiotic-treated samples is not scientifically meaningful, the fractional overlap was multiplied by the minimum of the control and sample count rates to generate a modified count rate accounting for antibiotic-induced morphological changes. All modified count rates were normalized by the average of the no-antibiotic controls. For automatic MIC determination, normalized count rates corresponding to n (index of predicted MIC), n+1, n+2 were iteratively fit to a linear function with a frameshift of n+1 between iterations (FIGS. 8 and 9). […] A threshold of −0.01 instead of zero was used to mitigate the influence of small fluctuations in normalized count rates on susceptibility determinations.

E. coli [2] = experiment: Broth microdilution (BMD) MIC; format: cell-based, Escherichia coli; parameters: key to susceptibility classification, BMD: (S) sensitive; (I) intermediate; (R) resistant; conditions: broth microdilution; for MIC: Escherichia coli, read-out: Minimum inhibitory concentration, BMD
Method: (§1) Microbroth dilution for minimum inhibitory concentrations (MIC) with and without sucrose recovery. To isolate bacteria without sucrose, culture media from positive BacT/alert FA PLUS aerobic culture bottles (bioMérieux, Durham, NC) was serially diluted and plated onto LB agar (Lennox; Sigma-Aldrich, St. Louis, MO). Bacterial suspensions were prepared by resuspending colonies in CAMHB with incubation on a MaxQ 4000 incubator shaker (Thermo Fisher Scientific, Waltham, MA) at 37° C. and ˜225 rpm for 3 hours. Bacteria recovered via Method 2 were diluted 10-fold in CAMHB. Following incubation or sucrose recovery and dilution, bacterial suspensions were adjusted to ˜0.004 OD600 with CAMHB and a 50-μL aliquot distributed to each well of a 96-well plate containing CAMHB with and without clinically relevant antibiotics (2-fold dilution series). Gram-negative plates included: ceftazidime (3rd generation cephalosporin, RPI corp., Mount Prospect, IL), cefepime (4th generation cephalosporin, Chem-Impex Int'l, Wood Dale, IL), meropenem (carbapenem, Tokyo Chemical Industry, Tokyo, Japan), levofloxacin (quinolone, Alfa Aesar, Haverhill, MA), and tobramycin (aminoglycoside, MP Biomedicals LLC, Santa Ana, CA), while S. aureus plates contained: oxacillin (beta-lactam, Sigma-Aldrich, St. Louis, MO), vancomycin (glycopeptide, Santa Cruz Biotechnology, Dallas, TX), erythromycin (macrolide, Sigma-Aldrich, St. Louis, MO), clindamycin ([…]), and ciprofloxacin (fluoroquinolone, Sigma-Aldrich, St. Louis, MO). Antibiotic plates were incubated at 37° C. for 16-20 hours (gram-negative) or 35° C. for 24 hours (S. aureus), at which time, plates were removed from the incubator and visually inspected for bacterial growth. The MIC was set at the lowest antibiotic concentration at which no growth was detected.

P. aeruginosa = experiment: Broth microdilution (BMD) MIC; format: cell-based, Pseudomonas aeruginosa; parameters: key to susceptibility classification, BMD: (S) sensitive; (I) intermediate; (R) resistant; conditions: for MIC: Pseudomonas aeruginosa
Method: as §1

P. aeruginosa 77 = experiment: Microbroth dilution MIC with and without sucrose recovery; format: cell-based, Pseudomonas aeruginosa; conditions: MIC given as multiple of S/I/R; for minimum inhibitory concentration (MIC), Standard: P. aeruginosa 77 recovered by standard plating
Method: as §1
Influence of Sucrose on Bacterial MIC. To rule out the potential effect of sucrose exposure in bacterial antibiotic susceptibility, microbroth dilution studies were performed on bacteria recovered using standard practices (i.e. plating following positive blood culture) and through selective lysis coupled with centrifugation through the sucrose cushion (Method 2).

[3] = P. aeruginosa Blood Culture B, broth microdilution
[4] = P. aeruginosa Blood Culture C, broth microdilution
[5] = P. aeruginosa PA7, broth microdilution
[6] = P. aeruginosa PA46, broth microdilution
[7] = P. aeruginosa PA49, broth microdilution
[8] = P. aeruginosa PA81, broth microdilution
[9] = P. aeruginosa PAO1, broth microdilution
[10] = P. aeruginosa Blood Culture B, broth microdilution, read-out: Minimum inhibitory concentration, BMD
[11] = P. aeruginosa Blood Culture C, broth microdilution, read-out: Minimum inhibitory concentration, BMD
[12] = P. aeruginosa PA7, broth microdilution, read-out: Minimum inhibitory concentration, BMD
[13] = P. aeruginosa PA46, broth microdilution, read-out: Minimum inhibitory concentration, BMD
[14] = P. aeruginosa PA49, broth microdilution, read-out: Minimum inhibitory concentration, BMD
[15] = P. aeruginosa PA81, broth microdilution, read-out: Minimum inhibitory concentration, BMD
[16] = PAO1, P. aeruginosa PAO1, broth microdilution, read-out: Minimum inhibitory concentration, BMD

Compound: CC(C)(O/N=C(\C(=O)N[C@@H]1C(=O)N2C(C(=O)[O-])=C(C[n+]3ccccc3)CS[C@H]12)c1csc(N)n1)C(=O)O [Ceftazidime, ceftazidime]
- susceptibility classification, HTFC (E. coli [1]; E. coli Blood Culture A): (I)
- susceptibility classification, HTFC (E. coli [1]; E. coli Blood Culture B): (R)
- susceptibility classification, HTFC (E. coli [1]; E. coli EC37): (I)
- susceptibility classification, HTFC (E. coli [1]; E. coli EC-bank): (R)
- susceptibility classification, HTFC (E. coli [1]; E. coli Mu76): (S)
- susceptibility classification, HTFC (E. coli [1]; E. coli Mu218): (R)
- susceptibility classification, HTFC (E. coli [1]; E. coli Mu890): (S)
- MIC (E. coli [1]; E. coli Blood Culture A): 8 µg/mL (≈ 14.6 µM)
- MIC (E. coli [1]; E. coli Blood Culture B): 32 µg/mL (≈ 58.5 µM)
- MIC (E. coli [1]; E. coli EC37): 8 µg/mL (≈ 14.6 µM)
- MIC (E. coli [1]; E. coli EC-bank): 16 µg/mL (≈ 29.3 µM)
- MIC (E. coli [1]; E. coli Mu76): 1 µg/mL (≈ 1.83 µM)
- MIC (E. coli [1]; E. coli Mu218): 16 µg/mL (≈ 29.3 µM)
- MIC (E. coli [1]; E. coli Mu890): ≤ 0.25 µg/mL
- susceptibility classification, BMD (E. coli [2]; E. coli Blood Culture A): (R)
- susceptibility classification, BMD (E. coli [2]; E. coli Blood Culture B): (R)
- susceptibility classification, BMD (E. coli [2]; E. coli EC37): (R)
- susceptibility classification, BMD (E. coli [2]; E. coli EC-bank): (R)
- susceptibility classification, BMD (E. coli [2]; E. coli Mu76): (S)
- susceptibility classification, BMD (E. coli [2]; E. coli Mu218): (R)
- susceptibility classification, BMD (E. coli [2]; E. coli Mu890): (S)
- MIC (E. coli [2]; E. coli Blood Culture A): 16 µg/mL (≈ 29.3 µM)
- MIC (E. coli [2]; E. coli Blood Culture B): 64 µg/mL (≈ 117 µM)
- MIC (E. coli [2]; E. coli EC37): 32 µg/mL (≈ 58.5 µM)
- MIC (E. coli [2]; E. coli EC-bank): 32 µg/mL (≈ 58.5 µM)
- MIC (E. coli [2]; E. coli Mu76): 2 µg/mL (≈ 3.66 µM)
- MIC (E. coli [2]; E. coli Mu218): 32 µg/mL (≈ 58.5 µM)
- MIC (E. coli [2]; E. coli Mu890): 0.5 µg/mL (≈ 0.915 µM)
- susceptibility classification, BMD (P. aeruginosa; [3]): (S)
- susceptibility classification, BMD (P. aeruginosa; [4]): (S)
- susceptibility classification, BMD (P. aeruginosa; [5]): (R)
- susceptibility classification, BMD (P. aeruginosa; [6]): (S)
- susceptibility classification, BMD (P. aeruginosa; [7]): (S)
- susceptibility classification, BMD (P. aeruginosa; [8]): (S)
- susceptibility classification, BMD (P. aeruginosa; [9]): (S)
- MIC (P. aeruginosa; [10]): 4 µg/mL (≈ 7.32 µM)
- MIC (P. aeruginosa; [11]): 1 µg/mL (≈ 1.83 µM)
- MIC (P. aeruginosa; [12]): 128 µg/mL (≈ 234 µM)
- MIC (P. aeruginosa; [13]): 1 µg/mL (≈ 1.83 µM)
- MIC (P. aeruginosa; [14]): 2 µg/mL (≈ 3.66 µM)
- MIC (P. aeruginosa; [15]): 4 µg/mL (≈ 7.32 µM)
- MIC (P. aeruginosa; [16]): 1 µg/mL (≈ 1.83 µM)
- minimum inhibitory concentration (MIC), Standard (P. aeruginosa 77): ½S
- minimum inhibitory concentration (MIC), Sucrose (P. aeruginosa 77; P. aeruginosa 77 recovered through sucrose (Method 2)): ¼S

Compound: C[C@@H](O)[C@H]1C(=O)N2C(C(=O)O)=C(S[C@@H]3CN[C@H](C(=O)N(C)C)C3)[C@H](C)[C@H]12 [Meropenem, meropenem]
- susceptibility classification, HTFC (E. coli [1]; E. coli Blood Culture A): (S)
- susceptibility classification, HTFC (E. coli [1]; E. coli Blood Culture B): (S)
- susceptibility classification, HTFC (E. coli [1]; E. coli EC37): (S)
- susceptibility classification, HTFC (E. coli [1]; E. coli EC-bank): (S)
- susceptibility classification, HTFC (E. coli [1]; E. coli Mu76): (R)
- susceptibility classification, HTFC (E. coli [1]; E. coli Mu218): (S)
- susceptibility classification, HTFC (E. coli [1]; E. coli Mu890): (S)
- MIC (E. coli [1]; E. coli Blood Culture A): ≤ 0.06 µg/mL
- MIC (E. coli [1]; E. coli Blood Culture B): ≤ 0.06 µg/mL
- MIC (E. coli [1]; E. coli EC37): ≤ 0.06 µg/mL
- MIC (E. coli [1]; E. coli EC-bank): ≤ 0.06 µg/mL
- MIC (E. coli [1]; E. coli Mu76): 4 µg/mL (≈ 10.4 µM)
- MIC (E. coli [1]; E. coli Mu218): ≤ 0.06 µg/mL
- MIC (E. coli [1]; E. coli Mu890): ≤ 0.06 µg/mL
- susceptibility classification, BMD (E. coli [2]; E. coli Blood Culture A): (S)
- susceptibility classification, BMD (E. coli [2]; E. coli Blood Culture B): (S)
- susceptibility classification, BMD (E. coli [2]; E. coli EC37): (S)
- susceptibility classification, BMD (E. coli [2]; E. coli EC-bank): (I)
- susceptibility classification, BMD (E. coli [2]; E. coli Mu76): (S)
- susceptibility classification, BMD (E. coli [2]; E. coli Mu218): (S)
- susceptibility classification, BMD (E. coli [2]; E. coli Mu890): (S)
- MIC (E. coli [2]; E. coli Blood Culture A): ≤ 0.06 µg/mL
- MIC (E. coli [2]; E. coli Blood Culture B): ≤ 0.06 µg/mL
- MIC (E. coli [2]; E. coli EC37): ≤ 0.06 µg/mL
- MIC (E. coli [2]; E. coli EC-bank): 2 µg/mL (≈ 5.22 µM)
- MIC (E. coli [2]; E. coli Mu76): 0.5 µg/mL (≈ 1.3 µM)
- MIC (E. coli [2]; E. coli Mu218): ≤ 0.06 µg/mL
- MIC (E. coli [2]; E. coli Mu890): ≤ 0.06 µg/mL
- susceptibility classification, BMD (P. aeruginosa; [3]): (R)
- susceptibility classification, BMD (P. aeruginosa; [4]): (S)
- susceptibility classification, BMD (P. aeruginosa; [5]): (S)
- susceptibility classification, BMD (P. aeruginosa; [6]): (S)
- susceptibility classification, BMD (P. aeruginosa; [7]): (S)
- susceptibility classification, BMD (P. aeruginosa; [8]): (R)
- susceptibility classification, BMD (P. aeruginosa; [9]): (S)
- MIC (P. aeruginosa; [10]): 8 µg/mL (≈ 20.9 µM)
- MIC (P. aeruginosa; [11]): 0.25 µg/mL (≈ 0.652 µM)
- MIC (P. aeruginosa; [12]): 1 µg/mL (≈ 2.61 µM)
- MIC (P. aeruginosa; [13]): 0.25 µg/mL (≈ 0.652 µM)
- MIC (P. aeruginosa; [14]): 0.5 µg/mL (≈ 1.3 µM)
- MIC (P. aeruginosa; [15]): 8 µg/mL (≈ 20.9 µM)
- MIC (P. aeruginosa; P. aeruginosa, strain not named (FIG. 13), read-out: MIC as determined by broth microdilution): 1 µg/mL (≈ 2.61 µM)
- MIC (P. aeruginosa; [16]): 0.5 µg/mL (≈ 1.3 µM)
- minimum inhibitory concentration (MIC), Standard (P. aeruginosa 77): ⅛S
